From patent EP3134349B1 (priority 2014, dated 2015) come the findings set out here.

The series in a line: Water solubility by batch tests at room temperature (saturated solution, headspace GC). The class given is physicochemical. As for the experimental part: In particular, in a vial fully filled with distilled water, a volume of pure compound (alone or mixed) in an amount sufficient for obtaining a well detectable precipitate and thus a saturated solution was injected. In order to quantify the solubilized fraction of the compound, the saturated solution was analyzed through gas chromatography of the headspace.

SMILES strings stand for the structures. ≈ marks a conversion by molar mass, not a printed value.

`ClC(Cl)C(Cl)Cl` [1,1,2,2-TeCA, 1,1,2,2-Tetrachloroethane] yielded an Experimental solubility (pure compound in distilled water) of 2.99 ± 0.18 gL^-1. The solubility (thermodynamic from solid, mixture of the two compounds 50% V/V, distilled water, no unit printed in this row (other rows gL^-1), read-out: Mixture 50% V/V (experimental water solubility of the component)) stood at 1470 ± 90 µg/mL (≈ 8.76 mM).
